Among the data in patent publication US20160151337A1, “ANNELATED PYRROLES AND THEIR USE AS CRAC INHIBITORS” (Grünenthal GmbH, priority 2013, published 2016) are inhibition and IC50 values, retold here.

The structures appear in SMILES notation.

What is called IC50 is the concentration that inhibits the measured activity by half.

Experiment [1] has as its target T1, CRAC channel (Homo sapiens, UniProt Q96D31).
T1 construct: endogenous in cells; host or cells: HEK293 (ECACC), untransfected
The experiment in a line: HEK Calcium Influx Assay (FLIPR), inhibition of store-operated Ca2+ entry after thapsigargin store depletion. It counts as cell-based. Particulars: 10 μM compound, HEK293 cells, read-out: % inhib. [@ 10 μM] FLIPR. Here is the method:
The effect of compounds of the invention on intracellular [Ca^2+] was tested in the HEK293 cell line (ECACC).
HEK293 cells were cultured in DMEM/F12/Glutamax (Gibco) containing 10% FCS (Gibco), and maintained at 37° C., 5% CO2. Cell were split twice a week [3*10^6 (Mon-Thu) and 1*10^6 (Thu-Mon) cells/50 ml medium in 1-175 ZK culture flasks, respectively]. Twenty four hours pre-experiment, cells were seeded on 96 well plates (Poly-D-Lysine 96 well Black/Clear Plate, BD Biocoat REF 356640) at a density of 40,000 cells/well in DMEM/F12 (Gibco) containing 10% FCS (Gibco), and maintained at 37° C., 5% CO2.
Prior to store-depletion, cell culture medium was removed and cells were loaded with the Calcium-sensitive fluorescent dye comprised within the Calcium-4-assay kit (Molecular Devices) in nominally Ca^2+-free HBS buffer (140 mM NaCl, 4 mM KCl, 0.2 mM MgCl2, 11 mM D-glucose, and 10 mM HEPES, pH 7.4) according to manufacturer's instruction for 60 min at 37° C., 5% CO2.
Passive depletion of intracellular Ca^2+-stores was then triggered by employing the SERCA inhibitor thapsigargin (2 μM final) for 10 min in the dark (RT). To prevent immediate Ca^2+-entry via the activated store-operated channels (SOCs), cells were maintained in Ca^2+-free HBS buffer comprising 100 μM EGTA during store-depletion.
Intracellular changes in [Ca^2+] were subsequently monitored with the FLIPR device (Molecular Devices). In brief, baseline imaging post-store depletion was allowed for 1 min before adjusting the extracellular buffer to 3 mM CaCl2. Increases in intracellular [Ca^2+] due to pre-activated SOC channels were monitored for 15 min until intracellular Ca^2+ levels had declined into a steady-state. Finally, compounds were administered, and Ca^2+ signals were recorded for additional 10 min.
Inhibition of endogenous SOC in HEK293 cells was quantified employing the average Ca^2+ signal measured from 9.5-10 min post-administration. Zero percent inhibition (MAX) was defined as the Ca^2+ signal recorded from wells to which DMSO-only had been added instead of compound. Hundred percent inhibition (MIN) was defined as the signal obtained from wells in which cells haven't been treated with TG prior to Ca^2+ addition and to which DMSO-only had been added instead of compound. For routine IC50 determinations of compounds, 8 concentrations of a serial dilution (1:3.16) were tested, starting off from 10 μM. Reliable IC50's could consequently be determined only, if they were at least sub 2.5-3 μM.

The test system of experiment [2] is Interleukin-2 (IL-2) production/release in Jurkat T cells. Kind of experiment: Jurkat IL-2 Production Assay (PHA-stimulated, IL-2 AlphaLisa). It counts as cell-based. To be noted: Homo sapiens, PHA 15 μg/ml, 22 h, inhibition of IL-2 production. Here is the method: The effect of compounds of the invention on Interleukin-2 (IL-2) production/release was tested in the Jurkat T cell line (ECACC) clone E6-1.
Jurkat T cells were cultured in DMEM/F12/Glutamax (Gibco) containing 10% FCS (Gibco), and maintained at 37° C., 5% CO2. Cells were split twice a week [5*10^6 (Mon-Thu) and 1*10^7 (Thu-Mon) cells/50 ml medium in 1-175 ZK culture flasks, respectively].
Prior to experiment, cells were seeded on 96 well plates (Cellstar 96 Well; Cat No. 655180, Greiner bio-one) at a density of 5*10^5 cells/well in DMEM/F12/Glutamax (Gibco) containing 10% FCS (Gibco), and incubated for 60 min at 37° C., 5% CO2. Subsequently, compounds were added and cells were allowed to incubate for 30 min at 37° C., 5% CO2. Cells were then stimulated with 15 μg/ml Phyto-hemagglutinin (PHA; Sigma) for 22 hours at 37° C., 5% CO2.
Before sampling of the supernatants, cells were spun down (200*g/5 min/RT). The amount of IL-2 released into the supernatant was quantified with the human IL-2 AlphaLisa kit (Perkin Elmer) according to manufacturer's instructions. Luminescence proximity measurements were carried out in the Synergy H4 reader (BioTek) employing the fluorescence setting of the reader (ex: 680/30 nm; em: 620/40 nm).
Inhibition of IL-2 production/release in/from Jurkat T cells was quantified as follows: Zero percent inhibition (MAX) was defined as the [IL-2] determined in supernatants derived from cells to which PHA & DMSO-only had been added instead of compound. Hundred percent inhibition (MIN) was defined as the [IL-2] determined in supernatants derived from cells that had been pre-treated with 1 μM CyclosporineA (Sigma) before the addition of 15 μg/ml PHA.
For routine IC50 determinations of compounds, 8 concentrations of a serial dilution (1:3.16) were tested, starting off from 10 μM.
(In general: In Alpha technology, singlet oxygen from a donor bead excites a nearby acceptor bead.)

T1 sequence (Q96D31 whole entry): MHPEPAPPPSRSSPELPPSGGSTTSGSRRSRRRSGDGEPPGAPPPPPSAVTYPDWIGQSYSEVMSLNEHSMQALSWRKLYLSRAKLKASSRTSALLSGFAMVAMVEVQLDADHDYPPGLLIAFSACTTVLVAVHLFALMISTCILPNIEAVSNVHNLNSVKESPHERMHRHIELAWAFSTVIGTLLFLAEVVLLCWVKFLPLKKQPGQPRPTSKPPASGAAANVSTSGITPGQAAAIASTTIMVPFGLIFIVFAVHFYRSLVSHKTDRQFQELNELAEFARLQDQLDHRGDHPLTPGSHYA

As for `Cc1sc(-c2cccnc2)nc1N1CCc2[nH]c(-c3c(F)cccc3F)cc2C1=O` [Example 1, 2-(2,6-Difluoro-phenyl)-5-(5-methyl-2-pyridin-3-yl-thiazol-4-yl)-1,5,6,7-tetrahydro-pyrrolo[3,2-c]pyridin-4-one], the inhibition at 10 µM in experiment [1] lay within 50 to 70%. Further, the IC50 in experiment [2] is 1 to 5 µM. For `Cc1sc(-c2cccnc2)nc1N1CCc2[nH]c(-c3c(F)cccc3F)cc2C1` [Example 2, 4-[2-(2,6-Difluoro-phenyl)-4,5,6,7-tetrahydro-1H-pyrrolo[3,2-c]pyridin-5-yl]-5-methyl-2-pyridin-3-yl-thiazole], in that order: above 70% and below 0.5 µM.

`Cc1cc(Cl)ncc1N1CCc2[nH]c(-c3c(F)cccc3F)cc2C1` [Example 4, 5-(6-Chloro-4-methyl-pyridin-3-yl)-2-(2,6-difluoro-phenyl)-4,5,6,7-tetrahydro-1H-pyrrolo[3,2-c]pyridine]: the inhibition at 10 µM in experiment [1] was above 70%. Further, in experiment [2], the IC50 is below 0.5 µM.

Consider `Cc1sc(-c2ccccn2)nc1N1CCc2[nH]c(-c3c(F)cccc3F)cc2C1` [Example 6, 4-[2-(2,6-Difluoro-phenyl)-4,5,6,7-tetrahydro-1H-pyrrolo[3,2-c]pyridin-5-yl]-5-methyl-2-pyridin-2-yl-thiazole], for which the inhibition at 10 µM in experiment [1] lay in the range of 50 to 70%. Besides, the IC50 in experiment [2] was below 0.5 µM.

Turning to `Fc1cccc(F)c1-c1cc2c([nH]1)CCN(c1cccc(C(F)(F)F)c1)C2` [Example 7, 2-(2,6-Difluoro-phenyl)-5-[3-(trifluoromethyl)phenyl]-4,5,6,7-tetrahydro-1H-pyrrolo[3,2-c]pyridine], in experiment [1], the inhibition at 10 µM was below 50%. The IC50 in experiment [2] lay in the range of 1 to 5 µM. The matching figures for `Cc1ccc(-c2nccs2)cc1N1CCc2[nH]c(-c3c(F)cccc3F)cc2C1` [Example 8, 2-[3-[2-(2,6-Difluoro-phenyl)-4,5,6,7-tetrahydro-1H-pyrrolo[3,2-c]pyridin-5-yl]-4-methyl-phenyl]-thiazole]: above 70% and below 0.5 µM.

Consider `Fc1cccc(F)c1-c1cc2c([nH]1)CCN(c1cc3c(cc1Cl)OC(F)(F)O3)C2` [Example 9, 5-(6-Chloro-2,2-difluoro-1,3-benzodioxol-5-yl)-2-(2,6-difluoro-phenyl)-4,5,6,7-tetrahydro-1H-pyrrolo[3,2-c]pyridine], for which the inhibition at 10 µM in experiment [1] is below 50%. The IC50 in experiment [2] fell in the range of 1 to 5 µM. For `Cc1ccncc1N1CCc2[nH]c(-c3c(F)cccc3F)cc2C1` [Example 10, 2-(2,6-Difluoro-phenyl)-5-(4-methyl-pyridin-3-yl)-4,5,6,7-tetrahydro-1H-pyrrolo[3,2-c]pyridine], in that order: above 70% and 1 to 5 µM. The matching figures for `Cc1cc(Cl)ccc1N1CCc2[nH]c(-c3c(F)cccc3F)cc2C1` [Example 11, 5-(4-Chloro-2-methyl-phenyl)-2-(2,6-difluoro-phenyl)-4,5,6,7-tetrahydro-1H-pyrrolo[3,2-c]pyridine]: below 50% and 0.5 to 1 µM. For `Cc1cc(C#N)ccc1N1CCc2[nH]c(-c3c(F)cccc3F)cc2C1` [Example 12, 4-[2-(2,6-Difluoro-phenyl)-4,5,6,7-tetrahydro-1H-pyrrolo[3,2-c]pyridin-5-yl]-3-methyl-benzonitrile], in that order: 50 to 70% and below 0.5 µM. As for `COC(=O)c1ccc(N2CCc3[nH]c(-c4c(F)cccc4F)cc3C2)c(C)c1` [Example 13, 4-[2-(2,6-Difluoro-phenyl)-4,5,6,7-tetrahydro-1H-pyrrolo[3,2-c]pyridin-5-yl]-3-methyl-benzoic acid methyl ester], the inhibition at 10 µM in experiment [1] was below 50%. In experiment [2], the IC50 fell in the range of 0.5 to 1 µM. The matching figures for `Cc1cc(S(=O)(=O)N(C)C)ccc1N1CCc2[nH]c(-c3c(F)cccc3F)cc2C1` [Example 14, 4-[2-(2,6-Difluoro-phenyl)-4,5,6,7-tetrahydro-1H-pyrrolo[3,2-c]pyridin-5-yl]-N,N,3-trimethyl-benzenesulfonic acid amide]: below 50% and below 0.5 µM. For `Cc1nc(Cl)ccc1N1CCc2[nH]c(-c3c(F)cccc3F)cc2C1` [Example 15, 5-(6-Chloro-2-methyl-pyridin-3-yl)-2-(2,6-difluoro-phenyl)-4,5,6,7-tetrahydro-1H-pyrrolo[3,2-c]pyridine], the inhibition at 10 µM in experiment [1] is above 70%. The IC50 in experiment [2] was 1 to 5 µM. On to `Cc1cc(C(=O)N(C)C)ccc1N1CCc2[nH]c(-c3c(F)cccc3F)cc2C1` [Example 81, 4-[2-(2,6-Difluoro-phenyl)-4,5,6,7-tetrahydro-1H-pyrrolo[3,2-c]pyridin-5-yl]-N,N,3-trimethyl-benzamide], for which the inhibition at 10 µM in experiment [1] is above 70%. Same read-out and setting: the same measure for `COc1cnc(C(F)(F)F)nc1N1CCc2[nH]c(-c3c(F)cccc3F)cc2C1` [Example 84, 2-(2,6-Difluoro-phenyl)-5-[5-methoxy-2-(trifluoromethyl)-pyrimidin-4-yl]-4,5,6,7-tetrahydro-1H-pyrrolo[3,2-c]pyridine]: 50 to 70%.

Regarding `Cc1sc(-c2cccnc2)nc1N1CCc2[nH]c(-c3c(F)cccc3F)c(CO)c2C1` [Example 85, [2-(2,6-Difluoro-phenyl)-5-(5-methyl-2-pyridin-3-yl-thiazol-4-yl)-4,5,6,7-tetrahydro-1H-pyrrolo[3,2-c]pyridin-3-yl]-methanol], in experiment [1], the inhibition at 10 µM was above 70%. The same measure, in the same setting: the same measure for `Cc1cc(S(C)(=O)=O)ncc1N1CCc2[nH]c(-c3snnc3C)cc2C1` [Example 89, 4-Methyl-5-[5-(4-methyl-6-methylsulfonyl-pyridin-3-yl)-4,5,6,7-tetrahydro-1H-pyrrolo[3,2-c]pyridin-2-yl]-[1,2,3]thiadiazole]: 50 to 70%; for `Cc1c(F)cncc1N1CCc2[nH]c(-c3c(F)cccc3F)cc2C1` [Example 94, 2-(2,6-Difluoro-phenyl)-5-(5-fluoro-4-methyl-pyridin-3-yl)-4,5,6,7-tetrahydro-1H-pyrrolo[3,2-c]pyridine]: above 70%; for `Cc1cc(N)ncc1N1CCc2[nH]c(-c3c(F)cccc3F)cc2C1` [Example 95, [5-[2-(2,6-Difluoro-phenyl)-4,5,6,7-tetrahydro-1H-pyrrolo[3,2-c]pyridin-5-yl]-4-methyl-pyridin-2-yl]-amine]: above 70%. For `COc1ncccc1-c1cc2c([nH]1)CCN(c1cnc(S(C)(=O)=O)cc1C)C2` [Example 98, 2-(2-Methoxy-pyridin-3-yl)-5-(4-methyl-6-methylsulfonyl-pyridin-3-yl)-4,5,6,7-tetrahydro-1H-pyrrolo[3,2-c]pyridine], the inhibition at 10 µM in experiment [1] was above 70%.

On to `CCn1nc(N2CCc3[nH]c(-c4c(F)cccc4F)cc3C2)cc1C1(C(F)(F)F)CC1` [Example 125, 2-(2,6-Difluoro-phenyl)-5-[1-ethyl-5-[1-(trifluoromethyl)-cyclopropyl]-1H-pyrazol-3-yl]-4,5,6,7-tetrahydro-1H-pyrrolo[3,2-c]pyridine], for which the inhibition at 10 µM in experiment [1] was above 70%.
